Assay results taken from patent US20230365589A1, “NOVEL AMINE DERIVATIVES” (Sumitomo Pharma Co., Ltd., priority 2020, published 2023).
Like-named read-outs stand apart in the source and are kept apart here.

Tests used:
Format in all cases: biochemical
DYRK1A = molecular target: T1, DYRK1A (Homo sapiens, UniProt Q13627); assay: Inhibition test on activity of DYRK family, mobility shift assay (MSA): DYRK1A
T1 construct: purchased Carna Biosciences, Inc. 04-130
How it was run: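 Mobility shift assay with recombinant DYRK1A (0.2 ng/μL enzyme solution), FITC-DYRKtide substrate (4 μM in substrate mix), 100 μM ATP in substrate mix, HEPES pH 7.5 buffer with MgCl2; 1 h at room temperature. Phosphorylated vs unphosphorylated peptide peaks quantified; IC50 from regression of inhibition rate against log concentration.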

DYRK1B = molecular target: T2, DYRK1B (Homo sapiens, UniProt Q9Y463); assay: Inhibition test on activity of DYRK family, mobility shift assay (MSA): DYRK1B
T2 construct: purchased Carna Biosciences, Inc. 04-131
Protocol: [Inhibition Test on Activity of DYRK Family (DYRK1A, DYRK1B, DYRK2, and DYRK3)]
The kinase activity was measured by mobility shift assay (MSA) method using QuickScout Screening Assist™ MSA (commercially available kit manufactured by Carna Biosciences, Inc.). The substrate of the kinase reaction used was an FITC-labeled DYRKtide peptide included in the kit. An assay buffer [20 mM HEPES, 0.01% Triton X-100™, 2 mM dithiothreitol, pH 7.5]was used to create a substrate mixture solution with a substrate (4 μM), MgCl2(20 mM), and ATP (DYRK1A: 100 μM; DYRK1B: 200 μM; DYRK2: 40 μM; and DYRK3: 20 μM). In addition, kinases (DYRK1A: manufactured by Carna Biosciences, Inc., Cat. No. 04-130; DYRK1B: manufactured by Carna Biosciences, Inc., Cat. No. 04-131; DYRK2; manufactured by Carna Biosciences, Inc., Cat. No. 04-132; and DYRK3; manufactured by Carna Biosciences, Inc., Cat. No. 04-133) were diluted with the assay buffer to prepare enzyme solutions (DYRK1A: 0.2 ng/μL; DYRK1B: 0.08 ng/μL; DYRK2: 0.04 ng/μL; and DYRK3: 0.25 ng/μL). The 10 mM solution of the test compound in DMSO was further diluted with DMSO to 10 levels of the concentration (0.00003 mM, 0.0001 mM, 0.0003 mM, 0.001 mM, 0.003 mM, 0.01 mM, 0.03 mM, 0.1 mM, 0.3 mM, and 1 mM), each of which was subjected to 25-fold dilution with the assay buffer to obtain a drug solution (4% DMSO solution). 5 μL of the drug solution or a control solution (4% DMSO-assay buffer), 5 μL of the substrate mixture solution, and 10 μL of the enzyme solution were mixed in the wells of a polypropylene 384-well plate and allowed to react at room temperature for 1 hour, and then the reaction was quenched by adding 60 μL of the termination buffer included in the kit. Subsequently, the quantities of the substrates (S) and the phosphorylated substrate (P) in the reaction solution were measured using LabChip EZ Reader II system (manufactured by Caliper Life Sciences) according to the protocol of the assay kit.
The heights of the peaks of the “substrate” and the “phosphorylated substrate” were expressed as S and P, respectively, and a blank containing the assay buffer instead of the enzyme solution was also measured.
The inhibition rate (%) of the test compound was calculated according to the following equation:
Inhibition rate (%)=(1−(C−A)/(B−A))×100 • wherein, A, B, and C represent P/(P+S) of the blank well, P/(P+S) of the control solution well, and P/(P+S) of the compound-containing well, respectively.
The IC50 value was calculated via a regression analysis of the inhibition rate and the test compound concentration (logarithmic value).
The inhibiting activities of representative compounds of the present invention are shown against DYRK1A, DYRK1B, DYRK2, and DYRK3 in Tables.

DYRK3 = molecular target: T3, DYRK3 (Homo sapiens, UniProt O43781); assay: Inhibition test on activity of DYRK family, mobility shift assay (MSA): DYRK3
T3 construct: purchased Carna Biosciences, Inc. 04-133
T3 sequence (O43781 1-568 isoform O43781-2): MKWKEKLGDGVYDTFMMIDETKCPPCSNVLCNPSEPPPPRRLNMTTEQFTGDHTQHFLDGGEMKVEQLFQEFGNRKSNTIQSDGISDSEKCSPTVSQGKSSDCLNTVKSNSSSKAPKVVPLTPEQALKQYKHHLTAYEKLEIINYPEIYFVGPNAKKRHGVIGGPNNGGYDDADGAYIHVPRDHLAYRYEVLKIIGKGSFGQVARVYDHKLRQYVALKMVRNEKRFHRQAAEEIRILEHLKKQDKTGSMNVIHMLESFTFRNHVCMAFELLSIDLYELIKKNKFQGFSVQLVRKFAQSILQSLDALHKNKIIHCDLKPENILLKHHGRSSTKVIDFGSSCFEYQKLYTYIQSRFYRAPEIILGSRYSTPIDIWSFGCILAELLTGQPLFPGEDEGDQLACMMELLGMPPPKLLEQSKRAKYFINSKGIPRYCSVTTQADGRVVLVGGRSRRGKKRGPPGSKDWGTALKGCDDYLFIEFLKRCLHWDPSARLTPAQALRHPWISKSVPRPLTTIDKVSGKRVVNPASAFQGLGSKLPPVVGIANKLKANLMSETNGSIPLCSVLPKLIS
How it was run: (§1)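 Mobility-shift readout of FITC-DYRKtide phosphorylation in 20 mM HEPES pH 7.5. The substrate mix held 4 µM peptide, 20 mM MgCl2 and ATP at 100 (1A), 200 (1B), 40 (2) or 20 µM (3). Reaction 1 h at room temperature; IC50 from regression of P/(P+S)-based inhibition vs log concentration.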

DYRK2 = molecular target: T4, DYRK2 (Homo sapiens, UniProt Q92630); assay: Inhibition test on activity of DYRK family, mobility shift assay (MSA): DYRK2
T4 construct: purchased Carna Biosciences, Inc. 04-132
T4 sequence (Q92630 74-601 limits assumed): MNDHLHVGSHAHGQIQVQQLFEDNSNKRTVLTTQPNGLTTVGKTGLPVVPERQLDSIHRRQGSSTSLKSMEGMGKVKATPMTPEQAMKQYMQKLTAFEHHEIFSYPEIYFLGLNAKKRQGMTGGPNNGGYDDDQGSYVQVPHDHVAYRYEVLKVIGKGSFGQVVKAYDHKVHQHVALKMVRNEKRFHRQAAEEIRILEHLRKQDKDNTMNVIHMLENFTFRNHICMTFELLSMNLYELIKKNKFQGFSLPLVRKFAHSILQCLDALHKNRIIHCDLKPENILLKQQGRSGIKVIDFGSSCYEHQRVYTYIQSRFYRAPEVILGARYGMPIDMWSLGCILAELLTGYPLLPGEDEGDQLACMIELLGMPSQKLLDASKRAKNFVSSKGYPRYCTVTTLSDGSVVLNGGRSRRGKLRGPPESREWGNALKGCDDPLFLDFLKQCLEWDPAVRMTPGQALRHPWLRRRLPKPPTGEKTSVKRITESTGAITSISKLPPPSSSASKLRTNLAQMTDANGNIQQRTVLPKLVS
How it was run: as §1

[1] = MSA, FITC-labeled DYRKtide peptide, ATP 100 μM, read-out: Inhibitory activity DYRK 1A (IC50 class)
[2] = MSA, FITC-labeled DYRKtide peptide, ATP 20 μM, read-out: Inhibitory activity DYRK 3 (IC50 class)
[3] = MSA, FITC-labeled DYRKtide peptide, ATP 40 μM, read-out: Inhibitory activity DYRK 2 (IC50 class)
[4] = MSA, FITC-labeled DYRKtide peptide, ATP 200 μM, read-out: Inhibitory activity DYRK 1B (IC50 class)

T2 sequence (Q9Y463 whole entry): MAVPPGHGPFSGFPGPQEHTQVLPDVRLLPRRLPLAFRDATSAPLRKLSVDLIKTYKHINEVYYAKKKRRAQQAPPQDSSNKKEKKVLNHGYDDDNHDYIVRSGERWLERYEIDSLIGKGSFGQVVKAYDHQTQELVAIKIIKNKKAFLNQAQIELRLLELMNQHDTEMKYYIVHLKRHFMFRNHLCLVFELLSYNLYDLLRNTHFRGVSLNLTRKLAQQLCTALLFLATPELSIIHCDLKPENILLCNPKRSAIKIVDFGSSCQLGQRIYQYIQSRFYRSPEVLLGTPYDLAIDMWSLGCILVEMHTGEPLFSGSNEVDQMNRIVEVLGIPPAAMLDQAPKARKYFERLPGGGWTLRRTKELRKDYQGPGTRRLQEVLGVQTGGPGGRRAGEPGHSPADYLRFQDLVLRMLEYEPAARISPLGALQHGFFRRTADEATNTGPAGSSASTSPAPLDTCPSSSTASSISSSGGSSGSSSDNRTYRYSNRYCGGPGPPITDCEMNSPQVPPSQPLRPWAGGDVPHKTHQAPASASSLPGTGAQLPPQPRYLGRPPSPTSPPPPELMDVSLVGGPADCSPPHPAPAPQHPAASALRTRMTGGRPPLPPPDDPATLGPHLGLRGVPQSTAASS

## N#CCN1CC[C@@H]2NC(=O)N(c3nc4c5c(ccc4s3)OCC5)[C@@H]2C1 (racemic) [Example 100, rac-[(3aR,7aS)-3-(7,8-dihydrofuro[3,2-e][1,3]benzothiazol-2-yl)-2-oxooctahydro-5H-imidazo[4,5-c]pyridin-5-yl]acetonitrile]
DYRK1A; read-out: Inhibitory activity DYRK 1A
  IC50: < 10 nM
DYRK1B; read-out: Inhibitory activity DYRK 1B
  IC50: 10 to 100 nM
DYRK3; read-out: Inhibitory activity DYRK 3
  IC50: ≥ 1000 nM
DYRK2; read-out: Inhibitory activity DYRK 2
  IC50: ≥ 1000 nM

## N#C[C@H]1C[C@@H]2[C@H](CO1)NC(=O)N2c1nc2c3c(ccc2s1)OCCO3 [Example 133, (3aR,6R,7aR)-1-(7,8-dihydro[1,4]dioxino[2,3-e][1,3]benzothiazol-2-yl)-2-oxooctahydropyrano[3,4-d]imidazole-6-carbonitrile]
DYRK1A; [1]
  IC50: < 10 nM
DYRK3; [2]
  IC50: 100 to 1000 nM
DYRK2; [3]
  IC50: 100 to 1000 nM

## C[C@H]1C[C@H]2NC(=O)N(c3nc4c5c(ccc4s3)OCC5)[C@H]2CO1 [Example 134]
DYRK1A; [1]
  IC50: 100 to 1000 nM
DYRK3; [2]
  IC50: ≥ 1000 nM
DYRK2; [3]
  IC50: ≥ 1000 nM

## O=C1N[C@H]2COCCC[C@H]2N1c1nc2c3c(ccc2s1)OCCO3 [Example 135, (3aR,8aR)-1-(7,8-dihydro[1,4]dioxino[2,3-e][1,3]benzothiazol-2-yl)hexahydro-1H-oxepino[3,4-d]imidazol-2(3H)-one]
DYRK1A; [1]
  IC50: 10 to 100 nM
DYRK3; [2]
  IC50: 100 to 1000 nM
DYRK2; [3]
  IC50: 100 to 1000 nM

## COC(=O)[C@H]1C[C@@H]2[C@H](CO1)NC(=O)N2c1nc2c3c(ccc2s1)OCC3 [Example 141]
DYRK1A; [1]
  IC50: 10 to 100 nM
DYRK3; [2]
  IC50: ≥ 1000 nM
DYRK2; [3]
  IC50: ≥ 1000 nM

## O=C1N[C@H]2CO[C@@H](CO)C[C@H]2N1c1nc2c3c(ccc2s1)OCC3 [Example 144, (3aR,6R,7aR)-1-(7,8-dihydrofuro[3,2-e][1,3]benzothiazol-2-yl)-6-(hydroxymethyl)hexahydropyrano[3,4-d]imidazol-2(3H)-one]
DYRK1A; [1]
  IC50: < 10 nM
DYRK3; [2]
  IC50: 100 to 1000 nM
DYRK2; [3]
  IC50: ≥ 1000 nM

## O=C1N[C@@H]2C[C@H](CO)OC[C@@H]2N1c1nc2c3c(ccc2s1)OCC3 [Example 145]
DYRK1A; [1]
  IC50: 100 to 1000 nM
DYRK3; [2]
  IC50: ≥ 1000 nM
DYRK2; [3]
  IC50: ≥ 1000 nM

## O=C1N[C@H]2CO[C@@H](CO)C[C@H]2N1c1nc2c3c(ccc2s1)OCCO3 [Example 146, (3aR,6R, 7aR)-1-(7,8-dihydro[1,4]dioxino[2,3-e][1,3]benzothiazol-2-yl)-6-(hydroxymethyl)hexahydropyrano[3,4-d]imidazol-2(3H)-one]
DYRK1A; [1]
  IC50: < 10 nM
DYRK3; [2]
  IC50: 100 to 1000 nM
DYRK2; [3]
  IC50: ≥ 1000 nM

## O=C1N[C@H]2CO[C@@H](CO)C[C@H]2N1c1nc2c3c(ccc2s1)OCO3 [Example 147, (3aR,6R,7aR)-1-(2H-[1,3]dioxolo[4,5-e][1,3]benzothiazol-7-yl)-6-(hydroxymethyl)hexahydropyrano[3,4-d]imidazol-2(3H)-one]
DYRK1A; [1]
  IC50: < 10 nM
DYRK3; [2]
  IC50: 100 to 1000 nM
DYRK2; [3]
  IC50: ≥ 1000 nM

## C#C[C@H]1C[C@@H]2[C@H](CO1)NC(=O)N2c1nc2c3c(ccc2s1)OCC3 [Example 149, (3aR,6R,7aR)-1-(7,8-dihydrofuro[3,2-e][1,3]benzothiazol-2-yl)-6-ethynylhexahydropyrano[3,4-d]imidazol-2(3H)-one]
DYRK1A; [1]
  IC50: < 10 nM
DYRK3; [2]
  IC50: 100 to 1000 nM
DYRK2; [3]
  IC50: ≥ 1000 nM

## O=C1N[C@H]2COC(O)C[C@H]2N1c1nc2c3c(ccc2s1)OCC3 (stereo partly drawn) [Example 150, (3aR,7aR)-1-(7,8-Dihydrofuro[3,2-e][1,3]benzothiazol-2-yl)-6-hydroxyhexahydropyrano[3,4-d]imidazol-2(3H)-one]
DYRK1A; [1]
  IC50: 10 to 100 nM
DYRK3; [2]
  IC50: 100 to 1000 nM
DYRK2; [3]
  IC50: 100 to 1000 nM

## O=C1N[C@H]2COC(F)C[C@H]2N1c1nc2c3c(ccc2s1)OCC3 (stereo partly drawn) [Example 151, (3aR,7aR)-1-(7,8-Dihydrofuro[3,2-e][1,3]benzothiazol-2-yl)-6-fluorohexahydropyrano[3,4-d]imidazol-2(3H)-one]
DYRK1A; [1]
  IC50: < 10 nM
DYRK3; [2]
  IC50: 10 to 100 nM
DYRK2; [3]
  IC50: 100 to 1000 nM

## O=C1C[C@@H]2[C@H](CO1)NC(=O)N2c1nc2c3c(ccc2s1)OCC3 [Example 152]
DYRK1A; [1]
  IC50: < 10 nM
DYRK3; [2]
  IC50: 10 to 100 nM
DYRK2; [3]
  IC50: 10 to 100 nM

## O=C1N[C@@H]2[C@@H](CO[C@@H]2CO)N1c1nc2c3c(ccc2s1)OCC3 [Example 153]
DYRK1A; [1]
  IC50: 10 to 100 nM
DYRK3; [2]
  IC50: 100 to 1000 nM
DYRK2; [3]
  IC50: 100 to 1000 nM

## O=C1N[C@@H]2CO[C@H](CO)[C@@H]2N1c1nc2c3c(ccc2s1)OCC3 [Example 154]
DYRK1A; [1]
  IC50: ≥ 1000 nM
DYRK3; [2]
  IC50: ≥ 1000 nM
DYRK2; [3]
  IC50: ≥ 1000 nM

## O=C1N[C@H]2CO[C@H](CO)[C@H]2N1c1nc2c3c(ccc2s1)OCC3 [Example 157, (3aR,6S,6aS)-1-(7,8-dihydrofuro[3,2-e][1,3]benzothiazol-2-yl)-6-(hydroxymethyl)tetrahydro-1H-furo[3,4-d]imidazol-2(3H)-one]
DYRK1B; [4]
  IC50: 10 to 100 nM
DYRK3; [2]
  IC50: 100 to 1000 nM
DYRK2; [3]
  IC50: 100 to 1000 nM

## N#CC[C@H]1OC[C@@H]2NC(=O)N(c3nc4c5c(ccc4s3)OCC5)[C@@H]21 [Example 162, [(3aS,4R,6aR)-3-(7,8-Dihydrofuro[3,2-e][1,3]benzothiazol-2-yl)-2-oxohexahydro-1H-furo[3,4-d]imidazol-4-yl]acetonitrile]
DYRK1B; [4]
  IC50: 10 to 100 nM
DYRK3; [2]
  IC50: 100 to 1000 nM
DYRK2; [3]
  IC50: 100 to 1000 nM
